# Reference: paper doi:10.1101/2025.09.12.675753, “In search of nonlipogenic ABCA1 inducers (NLAI): precision coregulator TR-FRET identifies diverse signatures for LXR ligands” (bioRxiv, 2025)
# Entries after “also recorded” stand apart in the source; their conditions may differ. Read-outs that look alike come from different tables or passages of the source.
# Tests used:
# LXRα [1] = biological target: T1, LXRα (Homo sapiens, UniProt Q13133); details: for SRC-1 recruitment to LXRα, efficacy relative to T0: ligand alone, normalized to T0 (100%)
# T1 sequence (Q13133 209-447 limits assumed): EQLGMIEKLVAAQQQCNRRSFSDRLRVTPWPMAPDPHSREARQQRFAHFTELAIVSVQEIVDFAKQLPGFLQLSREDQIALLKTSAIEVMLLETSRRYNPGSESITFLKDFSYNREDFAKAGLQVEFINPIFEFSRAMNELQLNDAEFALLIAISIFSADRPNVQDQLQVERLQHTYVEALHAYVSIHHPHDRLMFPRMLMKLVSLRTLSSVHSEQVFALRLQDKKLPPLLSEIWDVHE
# LXRβ [2] = biological target: T2, LXRβ (Homo sapiens, UniProt P55055); details: for LXR isoform selectivity, SRC-1 recruitment: LXRβ versus LXRα
# T2 sequence (P55055 222-460 limits assumed): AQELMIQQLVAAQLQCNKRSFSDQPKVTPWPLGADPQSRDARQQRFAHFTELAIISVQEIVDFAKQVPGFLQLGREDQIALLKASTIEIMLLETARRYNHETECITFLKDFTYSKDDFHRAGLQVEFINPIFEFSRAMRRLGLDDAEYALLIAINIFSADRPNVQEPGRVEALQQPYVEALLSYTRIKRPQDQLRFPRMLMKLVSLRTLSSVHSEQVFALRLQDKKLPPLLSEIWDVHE
# HepG2 cells [3] = experiment: Cytotoxicity seen in HepG2 cell treatment; details: higher concentrations
# [4] = po; cited from earlier work
# LXRα [5] = biological target: T1, LXRα; experiment: Corepressor (NCOR2, SMRT2) binding CRT, LXRα; details: absence of coactivator
# LXRβ [6] = biological target: T2, LXRβ; experiment: Corepressor (NCOR2, SMRT2) binding CRT, LXRβ
# HepG2 cells [7] = test system: HepG2 cells
# NASH mouse model = details: cited from earlier work
# [8] = test system: SRE promoter luciferase (SRE-luc) in HepG2 cells; experiment: SRE-luc reporter in HepG2 cells; assay type: cell-based, human; details: HepG2, normalized to T0
# Description: Our phenotypic high throughput screen (HTS) approach to identify nonlipogenic ABCA1 Inducers (NLAI) originally used counterscreening with a SREBP1c-luciferase reporter (linked to the SREBF1 gene promoter) in human hepatocarcinoma HepG2 cells.[81] Unwanted lipogenesis is mediated by LXR agonists via direct transcriptional activation and indirectly by the effects of SREBP1c.[57] [109] SREBP1c enhances transcription of genes required for synthesis of fatty acids and TG and as the dominant isoform in liver is associated most closely with lipogenesis and TG elevation.[109] […] Binding of SREBP1c to the sterol response element (SRE) induces transcription of lipogenic genes associated with elevated TG. To better model the lipogenic axis in hepatocytes, we use HepG2 cells stably transfected with a luciferase reporter downstream of a SRE promoter (SRE-luc), activation of which requires SREBP1c maturation.
# HepG2 cells were cotransfected with SRE (LDLR)-NlucP SuperPiggyBac Transposon and a separate Transposase plasmid (System Biosciences). Cells were expanded for multiple passages followed by selection with puromycin (1ug/ml). Stable cells constitutively express GFP allowed for FACS enrichment and/or cell cloning. Initially, stable pools were compared to low expressing and high expressing enriched pools. The optimal pool was selected based on assay performance (Z’) and was grown and maintained as above, with the addition of 1.0 μg/mL of puromycin biweekly.
# [9] = test system: SREBF1, FAS, and SCD1 in HepG2 cells; experiment: RT-PCR of lipogenic genes in HepG2 cells; assay type: cell-based, human; details: HepG2, 24 hours
# Experimental: Owing to the anomalous response in the reporter assay, we measured lipogenic genes, SREBF1, FAS, and SCD1 by RT-PCR in HepG2 cells in response to treatment with the biphenyl sulfones (Figs 5G–I).
# HepG2 cells were seeded in 12-well plates and treated with compounds for 24 hours. Following treatment, cells were washed once with PBS and then lysed in 350 μL of RLT buffer (Qiagen). Lysates were immediately frozen at −80 °C until RNA extraction. Total RNA was extracted using RNeasy Plus Mini columns (Qiagen) according to the manufacturer’s instructions. RNA concentration and purity were assessed using the A260/A280 ratio measured on a Synergy Neo2 plate reader (BioTek). For cDNA synthesis, 2 μg of total RNA was reverse transcribed using SuperScript III reverse transcriptase (Invitrogen), oligo(dT)12–18 primers, and dNTP mix, following the manufacturer’s protocol. Quantitative PCR was performed using TaqMan Gene Expression Master Mix (Invitrogen) with 2 μL of cDNA and gene-specific TaqMan probes in a 20 μL reaction volume per well. The following TaqMan assays were used: ABCA1: Hs01059101_m1, SREBF1: Hs01088691_m1, SCD: Hs01682761_m1, FASN: Hs01005622_m1, and HPRT1 (endogenous control): Hs02800695_m1. qPCR was performed on a StepOne Real-Time PCR System (Applied Biosystems), and gene expression was quantified using the ΔΔCt method.
# [10] = test system: ABCA1-promoter luciferase in CCF-STTG1 cells; experiment: ABCA1-luc reporter in CCF-STTG1 astrocytoma cells; assay type: cell-based, human; details: 24 hr incubation, normalized to T0 (100%)
# Description: Astrocytoma CCF-STTG1 cells, stably transfected with an ABCA1-promoter linked to a luciferase response element provide a model for ABCA1 induction in astrocytes.[81] […] Apparent inverse agonist activity in cell-based assays can result from true inverse agonist recruitment of corepressors or from antagonist activity towards endogenous sterol LXR agonists. Although we use serum stripped media, antagonism of endogenous LXR agonists cannot be ruled out.
# Low passage CCF-STTG1 cells (20,000 cells/well) were seeded in 96-well plates in media containing charcoal-stripped FBS and incubated at 37 °C and 5% CO2 for 24 hours prior to a 24-hour treatment. All compounds were dissolved in DMSO, and final DMSO concentrations never exceeded 1%. After a 24-hour incubation period, add a volume of ONE-GLO™EX Reagent that is equal to the volume of culture medium in each well and incubate for 3 to 5 minutes on the shaker. The luminescent activity of compounds ([…], 10-fold dilution) was examined using the ONE-GLO™EX assay (Promega). The data was normalized to DMSO. The assays were performed in duplicates for each concentration, and the EC50 values were determined from non-linear regression analysis of the dose-response curve generated in GraphPad Prism 9.
# LXR = experiment: CRT signature categorization, heat map of response at 1 μM; assay type: biochemical; details: signatures of Table 1
# Description: With the knowledge that corepressors bind to the apo-receptor; whereas coactivator binding requires a ligand-induced conformational change, we can categorize all ligands using their CRT profiles: ligands induce 3 conformations with CoR (destabilizing D, stabilizing S, neutral N) and only 2 conformations with CoA (stabilizing S, neutral N) (Table 1).
# To determine which LXR ligands fit with these theoretical CRT signatures, concentration-response curves were interpolated to measure normalized response at 1 μM ligand concentration and plotted as a heat map (Figs 9A, S8).
# The CRT signatures of the three agonist and three antagonist classifications were modelled in the same heat map using signatures defined in Table 1 and the measured responses to the real LXR ligands in our study.
# hamsters = test system: hamsters; design: method as in PMID 16024916; details: cited from earlier work
# cynomolgus monkeys = test system: cynomolgus monkeys; design: method as in PMID 16024916; details: cited from earlier work
# LXRβ [11] = biological target: T2, LXRβ; experiment: Multiplex precision CRT (pCRT), SRC1 and NCoR2, LXRβ; assay type: biochemical; design: NR-LBD with short coregulator peptides as used in the present work; purchased Thermo Fisher Scientific PV4660; details: isoform not given
# C57Bl/6 mice = test system: C57Bl/6 mice; design: method as in PMID 15145986; details: cited from earlier work
# LXRα [12] = biological target: T1, LXRα; design: NR-LBD with short coregulator peptides as used in the present work; purchased Thermo Fisher Scientific PV4657; method as in PMID 16354658; details: CRT; cited from earlier work
# LXRα [13] = biological target: T1, LXRα; experiment: Multiplex precision CRT (pCRT), SRC1 and NCoR2, LXRα; assay type: biochemical; design: NR-LBD with short coregulator peptides as used in the present work; purchased Thermo Fisher Scientific PV4657; details: isoform not given
# PXR = PXR (Homo sapiens, UniProt O75469); experiment: Lanthascreen CRT, SRC1-4 recruitment to PXR; assay type: biochemical; details: SRC1-4 coactivator
# PXR, sequence (O75469 146-433 limits assumed): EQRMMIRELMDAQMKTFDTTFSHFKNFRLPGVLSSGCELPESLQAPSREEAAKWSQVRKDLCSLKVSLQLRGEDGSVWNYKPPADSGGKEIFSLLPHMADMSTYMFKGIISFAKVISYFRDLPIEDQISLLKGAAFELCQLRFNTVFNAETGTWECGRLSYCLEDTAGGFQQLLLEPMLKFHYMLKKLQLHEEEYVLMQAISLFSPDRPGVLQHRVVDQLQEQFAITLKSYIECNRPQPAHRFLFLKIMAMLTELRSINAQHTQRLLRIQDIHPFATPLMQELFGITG
# HepG2 cells [14] = test system: HepG2 cells; design: method as in PMID 28087808; details: cited from earlier work
compound,measurement,setting,value
"CC(C)C(O)CC[C@@H](C)[C@H]1CC[C@H]2[C@@H]3CC=C4C[C@@H](O)CC[C@]4(C)[C@H]3CC[C@]12C (some centres unmarked) [24HC, 24-hydroxycholesterol]","SRC-1 recruitment to LXRα, efficacy relative to T0",LXRα [1],partial agonist
same,"LXR isoform selectivity, SRC-1 recruitment",LXRβ [2],nonselective
same,"SRC-1 recruitment to LXRβ, efficacy/potency relative to T0","LXRβ [2]; ligand alone, normalized to T0 (100%)",partial agonist
same,Cytotoxicity,HepG2 cells [3],cytotoxic at higher concentrations
"CC(CCC(=O)N(C)C)C1CCC2C3CC=C4CC(O)CCC4(C)C3CCC12C (stereo not drawn) [DMHCA, N,N-dimethyl-3β-hydroxy-cholenamide]",Metabolic lability and oral bioavailability,[4],metabolically labile with poor oral bioavailability
same,"SRC-1 recruitment to LXRα, efficacy relative to T0",LXRα [1],partial agonist activity at LXRα
same,"NCOR2 binding to LXRα, ligand effect",LXRα [5],little or no effect
same,"NCOR2 binding to LXRβ, ligand effect",LXRβ [6]; absence of coactivator,little or no effect; also recorded: does not displace NCOR2 from LXRβ in the absence of SRC1
same,"LXR isoform selectivity, SRC-1 recruitment",LXRβ [2],nonselective
same,Cytotoxicity,HepG2 cells [7],cytotoxic at higher concentrations
Cc1cc(C)c(S(=O)(=O)N(Cc2ccc(-c3cccc(S(C)(=O)=O)c3)cc2)Cc2ccc(C(F)(F)F)o2)c(C)c1 [GSK2033],Effect on 24HC agonism at LXRα,LXRα [1]; in the presence of 24HC (3 μM),without effect on LXRα
same,"SRC-1 recruitment to LXRα, efficacy relative to T0",LXRα [1],neither ligand stabilized the LXR:SRC1 complex alone
same,"Corepressor (NCOR2 and SMRT2) binding to LXRα, ligand effect",LXRα [5],does not stabilize a conformation that disrupts corepressor binding to LXRα
same,"SMRT2 binding to LXRβ, ligand effect",LXRβ [6],selectively displace SMRT2 from LXRβ
same,"Expression of lipogenic genes, including FAS and SREBP1c",NASH mouse model,increased rather than suppressed
same,SRE-luc response,[8],neutral or antagonist response; also recorded: mixed antagonist/inverse agonist phenotype
same,Effect on 24HC agonism at LXRβ,LXRβ [2],antagonized the agonism of 24HC at LXRβ
same,"SRC-1 recruitment to LXRβ, efficacy/potency relative to T0",LXRβ [2],neither ligand stabilized the LXR:SRC1 complex alone
same,"Lipogenic gene transcription (SREBF1, FAS, SCD1) by RT-PCR",[9],reducing lipogenic gene transcription below baseline
same,ABCA1-luc response,[10],inverse agonist activity in cells; also recorded: mixed antagonist/inverse agonist phenotype
same,CRT signature category,LXR,HA (hard antagonist (HA))
O=C(O)Cc1cccc(OCCCN(Cc2cccc(C(F)(F)F)c2Cl)CC(c2ccccc2)c2ccccc2)c1 [GW3965],"Plasma TG, LDL-C and VLDL-C",hamsters,dose-dependent increase
same,TG and LDL,cynomolgus monkeys,no effect on TG
same,"Left-shift in the NCOR2 displacement curve, pCRT versus CRT",LXRβ [11],100 fold
same,Liver weight and TGs,"C57Bl/6 mice; 3 days treatment, GW3965 even at 100mg/kg/day",no effect on these liver markers
same,SREBP1c and FAS expression in the liver,C57Bl/6 mice; 3 days treatment,minimal increases in SREBP1c and FAS expression in the liver
same,"ABCA1 expression increase, peripheral macrophages",C57Bl/6 mice; peripheral macrophages,7 fold
same,"ABCA1 expression increase, small intestine",C57Bl/6 mice; small intestine,8 fold
same,Concentration for weak recruitment of NCOR1 to LXRα,LXRα [12],> 1 µM
same,"Left-shift in the NCOR2 displacement curve, pCRT versus CRT",LXRα [13],100 fold
same,PXR agonism/binding in CRT,PXR,no binding to PXR
CN(CC(=O)Nc1ccc(F)c(F)c1F)C(=O)c1ccc2c(c1)OCCO2 [IMB-808],Lipogenicity in HepG2 cells,HepG2 cells [14],nonlipogenic in HepG2 cells
